Data reported in PubChem BioAssay AID330 (DTP/NCI, 2004).
Where “and” joins values, the source holds several entries; their conditions need not be identical. Identical values can stand only once. Toxic doses and inconclusive results are not listed. The calls were made as follows: active = survival T/C of 150% or more; inactive = T/C below 125% in these data.

Test system: P388 leukemia ip, CD2F1 mice, survival T/C
Assay: NCI In Vivo Anticancer Drug Screen. Data for tumor model P388 Leukemia (intraperitoneal) in CD2F1 (CDF1) mice
Details: endpoint: median survival time, higher = longer survival
Summary of the method: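 Mice carrying the transplanted tumor received test compound or vehicle. Survival was recorded in each group, and the value is the treated-group measurement divided by that of the vehicle-treated control group.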

[1] = dose: 50.0 mg/kg/injection, schedule: Q01DX005 (ip), vehicle: saline with Tween-80
[2] = dose: 100.0 mg/kg/injection, schedule: Q01DX005 (ip), vehicle: saline with Tween-80
[3] = dose: 200.0 mg/kg/injection, schedule: Q01DX005 (ip), vehicle: saline with Tween-80
[4] = dose: 100.0 mg/kg/injection, schedule: Q01DX001 (ip), vehicle: saline with Tween-80
[5] = dose: 200.0 mg/kg/injection, schedule: Q01DX001 (ip), vehicle: saline with Tween-80
[6] = dose: 400.0 mg/kg/injection, schedule: Q01DX001 (ip), vehicle: saline with Tween-80
[7] = dose: 50.0 mg/kg/injection, schedule: Q01DX005 (ip), vehicle: Klucel (hydroxypropylcellulose) (HPC)
[8] = dose: 100.0 mg/kg/injection, schedule: Q01DX005 (ip), vehicle: Klucel (hydroxypropylcellulose) (HPC)
[9] = dose: 200.0 mg/kg/injection, schedule: Q01DX005 (ip), vehicle: Klucel (hydroxypropylcellulose) (HPC)
[10] = dose: 50.0 mg/kg/injection, schedule: Q01DX005 (ip), vehicle: saline
[11] = dose: 100.0 mg/kg/injection, schedule: Q01DX005 (ip), vehicle: saline

Measured: T/C

Cc1ccc(S(=O)(=O)N/N=C/c2ccc(N(C)C)cc2)cc1
inactive: dose: 12.5 mg/kg/injection, schedule: Q01DX009 (ip), vehicle: other 113 % of control | dose: 25.0 mg/kg/injection, schedule: Q01DX009 (ip), vehicle: other 96 % of control | dose: 50.0 mg/kg/injection, schedule: Q01DX009 (ip), vehicle: other 109 % of control | dose: 100.0 mg/kg/injection, schedule: Q01DX009 (ip), vehicle: other 100 % of control | dose: 200.0 mg/kg/injection, schedule: Q01DX009 (ip), vehicle: other 106 % of control | dose: 400.0 mg/kg/injection, schedule: Q01DX009 (ip), vehicle: other 100 % of control

COc1ccc(Cc2cc3c(cc2OC(C)=O)OCO3)cc1
inactive: [1] 100 % of control | [2] 100 % of control | [3] 99 % of control

O=C(C(O)C(O)C(O)CO)n1cnc2c1ncn1c(=O)cc(CI)nc21 (centres undefined)
inactive: [4] 105 % of control | [5] 97 % of control | [6] 111 % of control

CC(C)[C@@H](C)/C=C/[C@@H](C)[C@H]1CC[C@@H]2[C@]1(C)CC[C@H]1[C@]23C=C[C@]2(C[C@@H](O)CC[C@]12C)OO3
inactive: dose: 3.75 mg/kg/injection, schedule: Q01DX005 (ip), vehicle: Klucel (hydroxypropylcellulose) (HPC) 93 % of control | dose: 7.5 mg/kg/injection, schedule: Q01DX005 (ip), vehicle: Klucel (hydroxypropylcellulose) (HPC) 93 % of control | dose: 15.0 mg/kg/injection, schedule: Q01DX005 (ip), vehicle: Klucel (hydroxypropylcellulose) (HPC) 86 % of control | dose: 25.0 mg/kg/injection, schedule: Q01DX005 (ip), vehicle: Klucel (hydroxypropylcellulose) (HPC) 90 % of control | dose: 30.0 mg/kg/injection, schedule: Q01DX005 (ip), vehicle: Klucel (hydroxypropylcellulose) (HPC) 90 % of control | [7] 89 % of control | [8] 86 % of control | [9] 98 % of control

Nc1ccc(-c2c3ccccc3nc3cc(N)ccc23)cc1
inactive: [10] 118 % of control | [11] 115 % of control

COc1cc2c(c(OC)c1OC)-c1ccc(=O)c(OC)cc1C(N(C)C(C)=O)CC2 (centres undefined)
inactive: dose: 1.25 mg/kg/injection, schedule: Q01DX009 (ip), vehicle: Klucel (hydroxypropylcellulose) (HPC) 100 % of control | dose: 2.5 mg/kg/injection, schedule: Q01DX009 (ip), vehicle: Klucel (hydroxypropylcellulose) (HPC) 100 % of control | dose: 5.0 mg/kg/injection, schedule: Q01DX009 (ip), vehicle: Klucel (hydroxypropylcellulose) (HPC) 113 % of control | dose: 10.0 mg/kg/injection, schedule: Q01DX009 (ip), vehicle: Klucel (hydroxypropylcellulose) (HPC) 103 % of control | dose: 20.0 mg/kg/injection, schedule: Q01DX009 (ip), vehicle: Klucel (hydroxypropylcellulose) (HPC) 106 % of control

COc1cc(OC)c(OC)cc1/C=N/NC(=O)N/N=C/c1cc(OC)c(OC)cc1OC
inactive: dose: 12.5 mg/kg/injection, schedule: Q01DX009 (ip), vehicle: distilled water + Tween-80 96 % of control | dose: 25.0 mg/kg/injection, schedule: Q01DX009 (ip), vehicle: distilled water + Tween-80 96 % of control | dose: 50.0 mg/kg/injection, schedule: Q01DX009 (ip), vehicle: distilled water + Tween-80 108 % of control | dose: 100.0 mg/kg/injection, schedule: Q01DX009 (ip), vehicle: distilled water + Tween-80 99 % of control | dose: 200.0 mg/kg/injection, schedule: Q01DX009 (ip), vehicle: distilled water + Tween-80 94 % of control | dose: 400.0 mg/kg/injection, schedule: Q01DX009 (ip), vehicle: distilled water + Tween-80 86 % of control

Fc1c(F)c(F)c(SN=S=Nc2ccccc2)c(F)c1F
inactive: [7] 106 % of control | [8] 108 % of control

C[n+]1c(/C=C\c2ccc(Cl)cc2)ccc2ccccc21
inactive: dose: 1.56 mg/kg/injection, schedule: Q01DX009 (ip), vehicle: saline with Tween-80 100 % of control | dose: 3.13 mg/kg/injection, schedule: Q01DX009 (ip), vehicle: saline with Tween-80 113 % of control

COC(c1ccccc1)C(Br)c1ccccc1 (centres undefined)
inactive: [4] 104 % of control | [5] 95 % of control | [6] 104 % of control

C=C1C(=O)OC2C(OC(=O)C(C)C)CCCC12 (centres undefined)
inactive: dose: 60.0 mg/kg/injection, schedule: Q01DX005 (ip), vehicle: Klucel (hydroxypropylcellulose) (HPC) 105 % of control | dose: 120.0 mg/kg/injection, schedule: Q01DX005 (ip), vehicle: Klucel (hydroxypropylcellulose) (HPC) 100 % of control | dose: 240.0 mg/kg/injection, schedule: Q01DX005 (ip), vehicle: Klucel (hydroxypropylcellulose) (HPC) 102 % of control

Cc1ccc(S(=O)(=O)N2CC3CC=C(Cc4ccnc5ccccc45)CC(C2)C3=O)cc1 (centres undefined)
inactive: dose: 100.0 mg/kg/injection, schedule: Q04DX003 (ip), vehicle: Klucel (hydroxypropylcellulose) (HPC) 105 % of control | dose: 200.0 mg/kg/injection, schedule: Q04DX003 (ip), vehicle: Klucel (hydroxypropylcellulose) (HPC) 91 % of control | dose: 400.0 mg/kg/injection, schedule: Q04DX003 (ip), vehicle: Klucel (hydroxypropylcellulose) (HPC) 96 % of control

C[S+](C)CCCl
inactive: [10] 100 % of control | [11] 107 % of control | dose: 200.0 mg/kg/injection, schedule: Q01DX005 (ip), vehicle: saline 109 % of control

COC(=O)[C@@]12OC[C@]34[C@H]([C@@H](O)[C@@H]1O)[C@@]1(C)CC(=O)C(O)=C(C)[C@@H]1C[C@H]3OC(=O)[C@H](OC(=O)C(Cc1ccccc1)NC(=O)OC(C)(C)C)[C@@H]24 (some centres undefined)
inactive: dose: 125.0 micrograms/kg/injection, schedule: Q01DX005 (ip), vehicle: Klucel (hydroxypropylcellulose) (HPC) 113 % of control | dose: 250.0 micrograms/kg/injection, schedule: Q01DX005 (ip), vehicle: Klucel (hydroxypropylcellulose) (HPC) 100 % of control | dose: 500.0 micrograms/kg/injection, schedule: Q01DX005 (ip), vehicle: Klucel (hydroxypropylcellulose) (HPC) 116 % of control | dose: 1000.0 micrograms/kg/injection, schedule: Q01DX005 (ip), vehicle: Klucel (hydroxypropylcellulose) (HPC) 114 % of control

CCCCN(CCCC)CC(O)c1ccc(F)c2ccccc12 (centres undefined)
inactive: dose: 12.5 mg/kg/injection, schedule: Q01DX005 (ip), vehicle: saline 96 % of control | dose: 25.0 mg/kg/injection, schedule: Q01DX005 (ip), vehicle: saline 105 % of control | [1] 113 % of control | [10] 99 % of control | [2] 97 % of control

O=C(O)/C(Cl)=C(\Cl)C(=O)Nc1ccc(Br)cc1
inactive: dose: 15.0 mg/kg/injection, schedule: Q01DX005 (ip), vehicle: saline with Tween-80 102 % of control | dose: 30.0 mg/kg/injection, schedule: Q01DX005 (ip), vehicle: saline with Tween-80 102 % of control | dose: 60.0 mg/kg/injection, schedule: Q01DX005 (ip), vehicle: saline with Tween-80 99 % of control and 111 % of control | dose: 120.0 mg/kg/injection, schedule: Q01DX005 (ip), vehicle: saline with Tween-80 104 % of control

CCc1c2c(cc3c1[nH]c1ccccc13)C(=O)OC2=O
inactive: [7] 95 % of control | [8] 86 % of control | [9] 98 % of control

O=C(NC(=O)c1cc2cc(Cl)cc(Cl)c2oc1=O)Oc1ccccc1
inactive: [1] 89 % of control | [2] 91 % of control | [3] 98 % of control

C/C(C/C(C)=N/C(N)=S)=N\C(N)=S
inactive: dose: 60.0 mg/kg/injection, schedule: Q01DX005 (ip), vehicle: saline 100 % of control | dose: 120.0 mg/kg/injection, schedule: Q01DX005 (ip), vehicle: saline 95 % of control | dose: 240.0 mg/kg/injection, schedule: Q01DX005 (ip), vehicle: saline 100 % of control

CC(=O)OCC1OC(Oc2ccc(C=C(C(C)=O)C(C)=O)cc2)C(OC(C)=O)C(OC(C)=O)C1OC(C)=O (centres undefined)
inactive: [1] 105 % of control | [2] 101 % of control | [3] 104 % of control
